Source: ChEMBL document CHEMBL5465560, “Selectivity Literature for EUbOPEN Chemogenomic Library” (2024)
One block for each compound: values may come before it.

Key:
[1] = biological target: T1, Cyclin-G-associated kinase (Homo sapiens) (UniProt O14976); experiment: Selectivity interaction (KinomeScan (DiscoverX)) EUB0000695a GAK; settings: at 100 nM
T1 sequence (whole entry): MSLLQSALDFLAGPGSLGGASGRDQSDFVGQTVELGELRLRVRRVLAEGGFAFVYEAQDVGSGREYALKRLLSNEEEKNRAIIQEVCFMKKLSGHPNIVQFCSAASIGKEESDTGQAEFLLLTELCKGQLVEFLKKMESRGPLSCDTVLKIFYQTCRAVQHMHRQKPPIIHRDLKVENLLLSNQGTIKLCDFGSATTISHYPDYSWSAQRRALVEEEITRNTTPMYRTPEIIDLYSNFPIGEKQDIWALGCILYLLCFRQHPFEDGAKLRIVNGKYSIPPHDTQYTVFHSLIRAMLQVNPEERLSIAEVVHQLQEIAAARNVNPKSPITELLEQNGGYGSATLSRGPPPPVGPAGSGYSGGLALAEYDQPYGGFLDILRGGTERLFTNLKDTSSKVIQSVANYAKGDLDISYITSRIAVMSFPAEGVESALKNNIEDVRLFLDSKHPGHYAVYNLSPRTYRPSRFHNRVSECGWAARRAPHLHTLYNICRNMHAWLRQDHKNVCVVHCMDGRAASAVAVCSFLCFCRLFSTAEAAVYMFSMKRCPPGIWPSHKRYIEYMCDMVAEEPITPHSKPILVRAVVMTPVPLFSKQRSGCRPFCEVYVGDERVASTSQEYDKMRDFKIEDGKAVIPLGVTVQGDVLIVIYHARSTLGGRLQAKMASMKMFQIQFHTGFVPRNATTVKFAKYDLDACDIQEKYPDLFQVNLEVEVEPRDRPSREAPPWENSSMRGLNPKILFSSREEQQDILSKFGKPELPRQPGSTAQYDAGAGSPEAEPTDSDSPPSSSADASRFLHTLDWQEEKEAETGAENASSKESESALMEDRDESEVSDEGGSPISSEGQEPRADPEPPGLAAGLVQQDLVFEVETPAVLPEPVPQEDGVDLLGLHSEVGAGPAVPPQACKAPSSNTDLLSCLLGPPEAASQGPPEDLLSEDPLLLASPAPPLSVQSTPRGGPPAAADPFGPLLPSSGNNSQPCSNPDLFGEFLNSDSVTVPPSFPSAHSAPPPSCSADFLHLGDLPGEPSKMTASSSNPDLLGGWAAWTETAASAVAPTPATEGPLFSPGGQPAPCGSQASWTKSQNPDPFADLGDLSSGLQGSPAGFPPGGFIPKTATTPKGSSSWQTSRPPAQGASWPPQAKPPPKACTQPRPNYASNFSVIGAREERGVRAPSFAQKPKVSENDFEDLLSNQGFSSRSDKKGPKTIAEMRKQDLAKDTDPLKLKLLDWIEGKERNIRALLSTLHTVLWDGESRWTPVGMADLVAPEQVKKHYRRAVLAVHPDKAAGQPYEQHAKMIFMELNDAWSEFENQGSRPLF

[2] = biological target: Serine/threonine-protein kinase PAK 4 (Homo sapiens, UniProt O96013); experiment: Selectivity interaction (ProQinase) EUB0000171b PAK4
[3] = biological target: Insulin receptor-related protein (Homo sapiens) (UniProt P14616); experiment: Selectivity interaction (KinomeScan (DiscoverX)) EUB0001619a INSRR; settings: at 1 µM
[4] = biological target: T2, Mitogen-activated protein kinase 12 (Homo sapiens) (UniProt P53778); experiment: Selectivity interaction (ActivX KiNativ screen (ex vivo kinase selectivity in human PBMCs)) EUB0001619a MAPK12; type: cell-based; settings: PBMC, at 1 µM
T2 sequence (whole entry): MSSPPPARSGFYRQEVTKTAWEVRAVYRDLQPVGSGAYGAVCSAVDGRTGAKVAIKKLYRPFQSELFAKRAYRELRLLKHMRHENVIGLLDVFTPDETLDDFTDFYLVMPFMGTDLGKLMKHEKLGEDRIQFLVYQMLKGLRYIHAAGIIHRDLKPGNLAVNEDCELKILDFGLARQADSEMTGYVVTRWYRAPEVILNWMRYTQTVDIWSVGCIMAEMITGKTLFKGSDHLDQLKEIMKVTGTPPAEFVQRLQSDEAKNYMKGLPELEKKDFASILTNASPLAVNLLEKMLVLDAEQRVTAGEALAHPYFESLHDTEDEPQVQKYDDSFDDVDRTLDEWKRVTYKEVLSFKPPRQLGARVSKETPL

[5] = biological target: T3, Dual specificity protein kinase TTK (Homo sapiens) (UniProt P33981); experiment: Selectivity interaction (KinomeScan (DiscoverX)) EUB0001619a TTK; settings: at 1 µM
T3 sequence (whole entry): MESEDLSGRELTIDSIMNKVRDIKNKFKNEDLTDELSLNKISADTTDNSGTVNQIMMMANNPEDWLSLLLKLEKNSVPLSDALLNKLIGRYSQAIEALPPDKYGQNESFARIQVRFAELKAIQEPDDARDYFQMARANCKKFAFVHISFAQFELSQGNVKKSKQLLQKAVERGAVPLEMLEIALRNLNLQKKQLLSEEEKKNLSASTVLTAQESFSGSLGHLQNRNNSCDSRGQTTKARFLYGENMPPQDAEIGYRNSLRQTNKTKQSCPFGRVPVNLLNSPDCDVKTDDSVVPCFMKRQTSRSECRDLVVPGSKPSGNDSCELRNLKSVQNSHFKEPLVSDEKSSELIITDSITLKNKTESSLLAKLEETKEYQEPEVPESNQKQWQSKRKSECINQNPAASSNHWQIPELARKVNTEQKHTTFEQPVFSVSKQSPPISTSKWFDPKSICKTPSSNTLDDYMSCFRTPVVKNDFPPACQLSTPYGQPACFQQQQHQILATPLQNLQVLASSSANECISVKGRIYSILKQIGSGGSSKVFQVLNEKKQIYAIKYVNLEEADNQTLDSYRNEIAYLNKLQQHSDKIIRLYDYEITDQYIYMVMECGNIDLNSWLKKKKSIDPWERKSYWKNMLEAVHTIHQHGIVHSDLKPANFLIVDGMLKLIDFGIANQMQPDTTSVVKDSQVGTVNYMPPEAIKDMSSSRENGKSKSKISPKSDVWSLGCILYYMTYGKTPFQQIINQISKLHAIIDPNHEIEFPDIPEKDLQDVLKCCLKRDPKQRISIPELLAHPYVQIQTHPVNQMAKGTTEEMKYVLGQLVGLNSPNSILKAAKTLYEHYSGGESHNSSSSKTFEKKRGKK

Sequence of Serine/threonine-protein kinase PAK 4 (O96013 whole entry, looked up): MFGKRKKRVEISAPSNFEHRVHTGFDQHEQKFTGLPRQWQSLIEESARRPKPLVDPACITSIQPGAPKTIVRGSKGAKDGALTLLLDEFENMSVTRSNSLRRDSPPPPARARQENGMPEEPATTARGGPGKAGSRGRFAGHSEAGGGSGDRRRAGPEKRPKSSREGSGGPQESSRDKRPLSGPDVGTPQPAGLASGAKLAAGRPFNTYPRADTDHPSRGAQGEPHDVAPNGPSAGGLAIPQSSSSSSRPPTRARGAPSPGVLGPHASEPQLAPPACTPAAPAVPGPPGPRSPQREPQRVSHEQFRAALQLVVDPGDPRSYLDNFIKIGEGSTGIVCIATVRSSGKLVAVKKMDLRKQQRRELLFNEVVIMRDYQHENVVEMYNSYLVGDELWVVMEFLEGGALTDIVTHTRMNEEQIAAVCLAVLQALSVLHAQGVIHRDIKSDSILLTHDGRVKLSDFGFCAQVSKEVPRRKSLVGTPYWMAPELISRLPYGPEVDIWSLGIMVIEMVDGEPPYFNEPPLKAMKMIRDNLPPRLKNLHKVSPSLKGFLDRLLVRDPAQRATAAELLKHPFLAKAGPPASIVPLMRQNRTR
Sequence of Insulin receptor-related protein (Homo sapiens) (P14616 27-742 limits assumed): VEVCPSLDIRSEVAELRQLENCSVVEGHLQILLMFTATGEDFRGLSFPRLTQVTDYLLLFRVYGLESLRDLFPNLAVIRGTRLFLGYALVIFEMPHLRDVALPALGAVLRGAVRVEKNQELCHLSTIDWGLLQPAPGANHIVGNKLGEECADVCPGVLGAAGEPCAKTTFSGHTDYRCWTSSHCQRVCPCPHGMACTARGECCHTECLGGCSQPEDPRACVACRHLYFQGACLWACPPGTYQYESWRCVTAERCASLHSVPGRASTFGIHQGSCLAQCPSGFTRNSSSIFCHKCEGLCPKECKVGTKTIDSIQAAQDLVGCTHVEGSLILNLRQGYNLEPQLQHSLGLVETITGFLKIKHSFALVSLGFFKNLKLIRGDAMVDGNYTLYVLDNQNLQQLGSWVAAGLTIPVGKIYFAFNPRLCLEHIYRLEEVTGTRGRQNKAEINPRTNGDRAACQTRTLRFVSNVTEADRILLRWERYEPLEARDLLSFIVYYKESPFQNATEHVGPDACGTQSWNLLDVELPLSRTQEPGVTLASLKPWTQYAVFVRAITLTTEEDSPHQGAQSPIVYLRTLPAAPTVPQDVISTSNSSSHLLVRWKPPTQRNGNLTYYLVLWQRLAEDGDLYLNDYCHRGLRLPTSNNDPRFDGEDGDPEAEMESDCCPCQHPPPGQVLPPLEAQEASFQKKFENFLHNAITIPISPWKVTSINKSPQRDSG
Sequence of Insulin receptor-related protein (Homo sapiens) (P14616 747-1297 limits assumed): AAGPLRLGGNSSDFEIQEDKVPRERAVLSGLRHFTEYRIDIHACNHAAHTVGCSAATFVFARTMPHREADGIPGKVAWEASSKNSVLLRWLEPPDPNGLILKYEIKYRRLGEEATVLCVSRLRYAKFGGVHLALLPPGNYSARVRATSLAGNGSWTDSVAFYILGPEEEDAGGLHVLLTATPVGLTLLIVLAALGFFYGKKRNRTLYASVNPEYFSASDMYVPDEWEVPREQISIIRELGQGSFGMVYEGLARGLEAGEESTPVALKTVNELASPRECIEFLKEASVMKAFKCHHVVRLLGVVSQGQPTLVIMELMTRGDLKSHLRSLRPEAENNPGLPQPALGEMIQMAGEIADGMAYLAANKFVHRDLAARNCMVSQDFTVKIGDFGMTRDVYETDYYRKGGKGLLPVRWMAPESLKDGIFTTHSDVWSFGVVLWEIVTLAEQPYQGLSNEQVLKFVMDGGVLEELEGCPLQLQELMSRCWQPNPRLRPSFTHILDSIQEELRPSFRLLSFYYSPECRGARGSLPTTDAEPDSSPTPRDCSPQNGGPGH

Compound: Cc1cc(F)c(C(=O)Nc2cccc(-c3nncn3C(C)C)n2)cc1-n1cnc(C2CC2)c1
% of control [1]: 88%

% of control ([2]; at 1 µM): 92%
% of control ([2]; at 5 µM): 76%
Compound: C=CC(=O)Nc1cccc(C(=O)Nc2ccc(Nc3cc(-c4[nH]c(SC)nc4C)ccn3)cc2)c1

Compound: N#Cc1cccc(-c2c[nH]c3ncnc(N4CCOCC4)c23)c1
% of control [3]: 100%
% of inhibition [4]: -6%
% of control [5]: 92%
